“And” between values parts separate entries of the source, which are not always exact repeats. Equal entries are not always repeated.
Legend:
Test in all cases: Competitive ABPP / direct target identification with alkyne probe 9 in HEK293 cell lysates
Assay type in all cases: binding, H. sapiens
[1] = molecular target: T1, HEK293 cell lysates (proteome-wide targets of probe 9) (Homo sapiens, UniProt P53396); details: protein ACLY
T1 construct: endogenous in cells; host or cells: HEK293 cell lysate

[2] = molecular target: T2, HEK293 cell lysates (proteome-wide targets of probe 9) (Homo sapiens, UniProt P11498); details: protein PC
T2 construct: endogenous in cells; host or cells: HEK293 cell lysate

[3] = molecular target: T3, HEK293 cell lysates (proteome-wide targets of probe 9) (Homo sapiens, UniProt P37802); details: protein TAGLN2
T3 construct: endogenous in cells; host or cells: HEK293 cell lysate

[4] = molecular target: T4, HEK293 cell lysates (proteome-wide targets of probe 9) (Homo sapiens, UniProt Q6V1X1)
T4 construct: endogenous in cells; host or cells: HEK293 cell lysate

[5] = molecular target: T5, HEK293 cell lysates (proteome-wide targets of probe 9) (Homo sapiens, UniProt P62258); details: protein YWHAE
T5 construct: endogenous in cells; host or cells: HEK293 cell lysate

[6] = molecular target: T6, HEK293 cell lysates (proteome-wide targets of probe 9) (Homo sapiens, UniProt P14923); details: protein JUP
T6 construct: endogenous in cells; host or cells: HEK293 cell lysate

[7] = molecular target: T7, HEK293 cell lysates (proteome-wide targets of probe 9) (Homo sapiens, UniProt P22314); details: protein UBA1
T7 construct: endogenous in cells; host or cells: HEK293 cell lysate

[8] = molecular target: T8, HEK293 cell lysates (proteome-wide targets of probe 9) (Homo sapiens, UniProt Q14697); details: protein GANAB
T8 construct: endogenous in cells; host or cells: HEK293 cell lysate

[9] = molecular target: T9, HEK293 cell lysates (proteome-wide targets of probe 9) (Homo sapiens, UniProt P07195); details: protein LDHB
T9 construct: endogenous in cells; host or cells: HEK293 cell lysate

[10] = molecular target: T10, HEK293 cell lysates (proteome-wide targets of probe 9) (Homo sapiens, UniProt P37837); details: protein TALDO1
T10 construct: endogenous in cells; host or cells: HEK293 cell lysate

[11] = molecular target: T11, HEK293 cell lysates (proteome-wide targets of probe 9) (Homo sapiens, UniProt P59998); details: protein ARPC4
T11 construct: endogenous in cells; host or cells: HEK293 cell lysate

[12] = molecular target: T12, HEK293 cell lysates (proteome-wide targets of probe 9) (Homo sapiens, UniProt P60842); details: protein EIF4A1
T12 construct: endogenous in cells; host or cells: HEK293 cell lysate

[13] = molecular target: T13, HEK293 cell lysates (proteome-wide targets of probe 9) (Homo sapiens, UniProt P50990); details: protein CCT8
T13 construct: endogenous in cells; host or cells: HEK293 cell lysate

[14] = molecular target: T14, HEK293 cell lysates (proteome-wide targets of probe 9) (Homo sapiens, UniProt Q14974); details: protein KPNB1
T14 construct: endogenous in cells; host or cells: HEK293 cell lysate

[15] = molecular target: T15, HEK293 cell lysates (proteome-wide targets of probe 9) (Homo sapiens, UniProt Q13085); details: protein ACACA
T15 construct: endogenous in cells; host or cells: HEK293 cell lysate

[16] = molecular target: T16, HEK293 cell lysates (proteome-wide targets of probe 9) (Homo sapiens, UniProt Q99832); details: protein CCT7
T16 construct: endogenous in cells; host or cells: HEK293 cell lysate

[17] = molecular target: T17, HEK293 cell lysates (proteome-wide targets of probe 9) (Homo sapiens, UniProt P10599); details: protein TXN
T17 construct: endogenous in cells; host or cells: HEK293 cell lysate

[18] = molecular target: T18, HEK293 cell lysates (proteome-wide targets of probe 9) (Homo sapiens, UniProt P25398); details: protein RPS12
T18 construct: endogenous in cells; host or cells: HEK293 cell lysate

[19] = molecular target: T19, HEK293 cell lysates (proteome-wide targets of probe 9) (Homo sapiens, UniProt O60506); details: protein SYNCRIP
T19 construct: endogenous in cells; host or cells: HEK293 cell lysate

[20] = molecular target: T20, HEK293 cell lysates (proteome-wide targets of probe 9) (Homo sapiens, UniProt P61978); details: protein HNRNPK
T20 construct: endogenous in cells; host or cells: HEK293 cell lysate

[21] = molecular target: T21, HEK293 cell lysates (proteome-wide targets of probe 9) (Homo sapiens, UniProt Q14103); details: protein HNRNPD
T21 construct: endogenous in cells; host or cells: HEK293 cell lysate

[22] = molecular target: T22, HEK293 cell lysates (proteome-wide targets of probe 9) (Homo sapiens, UniProt Q01469); details: protein FABP5
T22 construct: endogenous in cells; host or cells: HEK293 cell lysate

[23] = molecular target: T23, HEK293 cell lysates (proteome-wide targets of probe 9) (Homo sapiens, UniProt P60866); details: protein RPS20
T23 construct: endogenous in cells; host or cells: HEK293 cell lysate

[24] = molecular target: T24, HEK293 cell lysates (proteome-wide targets of probe 9) (Homo sapiens, UniProt P78371); details: protein CCT2
T24 construct: endogenous in cells; host or cells: HEK293 cell lysate

[25] = molecular target: T25, HEK293 cell lysates (proteome-wide targets of probe 9) (Homo sapiens, UniProt Q12802); details: protein AKAP13
T25 construct: endogenous in cells; host or cells: HEK293 cell lysate

[26] = molecular target: T26, HEK293 cell lysates (proteome-wide targets of probe 9) (Homo sapiens, UniProt P09651); details: protein HNRNPA1
T26 construct: endogenous in cells; host or cells: HEK293 cell lysate

[27] = molecular target: T27, HEK293 cell lysates (proteome-wide targets of probe 9) (Homo sapiens, UniProt P06733); details: protein ENO1
T27 construct: endogenous in cells; host or cells: HEK293 cell lysate

[28] = molecular target: T28, HEK293 cell lysates (proteome-wide targets of probe 9) (Homo sapiens, UniProt P42704); details: protein LRPPRC
T28 construct: endogenous in cells; host or cells: HEK293 cell lysate

[29] = molecular target: T29, HEK293 cell lysates (proteome-wide targets of probe 9) (Homo sapiens, UniProt P46782); details: protein RPS5
T29 construct: endogenous in cells; host or cells: HEK293 cell lysate

[30] = molecular target: T30, HEK293 cell lysates (proteome-wide targets of probe 9) (Homo sapiens, UniProt P40926); details: protein MDH2
T30 construct: endogenous in cells; host or cells: HEK293 cell lysate

[31] = molecular target: T31, HEK293 cell lysates (proteome-wide targets of probe 9) (Homo sapiens, UniProt P48147); details: protein PREP (Prolyl endopeptidase)
T31 construct: endogenous in cells; host or cells: HEK293 cell lysate

[32] = protein DPP8 (Dipeptidyl peptidase 8)

T4 sequence (Q6V1X1 whole entry): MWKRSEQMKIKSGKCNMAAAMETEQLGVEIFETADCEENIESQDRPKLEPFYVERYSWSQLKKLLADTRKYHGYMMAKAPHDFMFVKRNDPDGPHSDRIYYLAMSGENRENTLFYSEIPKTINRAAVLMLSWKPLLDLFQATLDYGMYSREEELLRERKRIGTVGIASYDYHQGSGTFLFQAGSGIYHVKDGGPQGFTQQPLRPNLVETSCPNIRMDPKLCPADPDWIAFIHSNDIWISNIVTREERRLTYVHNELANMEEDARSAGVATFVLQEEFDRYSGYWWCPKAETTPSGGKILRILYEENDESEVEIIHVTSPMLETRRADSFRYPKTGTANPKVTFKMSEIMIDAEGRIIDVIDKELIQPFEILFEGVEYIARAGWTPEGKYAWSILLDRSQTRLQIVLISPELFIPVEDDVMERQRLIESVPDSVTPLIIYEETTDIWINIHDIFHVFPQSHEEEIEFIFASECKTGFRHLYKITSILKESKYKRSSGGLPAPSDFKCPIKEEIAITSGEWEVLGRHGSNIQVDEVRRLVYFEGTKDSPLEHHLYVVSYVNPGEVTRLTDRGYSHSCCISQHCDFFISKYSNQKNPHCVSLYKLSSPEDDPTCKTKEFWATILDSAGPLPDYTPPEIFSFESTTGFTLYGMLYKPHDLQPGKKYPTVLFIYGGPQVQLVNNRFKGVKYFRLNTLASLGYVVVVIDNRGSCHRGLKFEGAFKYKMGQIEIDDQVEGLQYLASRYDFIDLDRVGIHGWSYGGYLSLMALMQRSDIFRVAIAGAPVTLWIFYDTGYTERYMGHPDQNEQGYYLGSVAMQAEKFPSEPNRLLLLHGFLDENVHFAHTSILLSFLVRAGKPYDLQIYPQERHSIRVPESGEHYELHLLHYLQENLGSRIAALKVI
T21 sequence (Q14103 whole entry): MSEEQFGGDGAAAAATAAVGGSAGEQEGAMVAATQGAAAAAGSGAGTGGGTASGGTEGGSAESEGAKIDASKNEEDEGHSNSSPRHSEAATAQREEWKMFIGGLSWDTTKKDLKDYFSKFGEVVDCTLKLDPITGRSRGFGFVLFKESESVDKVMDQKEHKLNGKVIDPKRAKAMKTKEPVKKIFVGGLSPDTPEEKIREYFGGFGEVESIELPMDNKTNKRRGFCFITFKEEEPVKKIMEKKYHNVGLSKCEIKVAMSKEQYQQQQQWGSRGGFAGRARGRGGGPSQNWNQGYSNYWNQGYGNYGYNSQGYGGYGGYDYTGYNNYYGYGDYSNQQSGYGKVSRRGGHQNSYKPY
T5 sequence (P62258 whole entry): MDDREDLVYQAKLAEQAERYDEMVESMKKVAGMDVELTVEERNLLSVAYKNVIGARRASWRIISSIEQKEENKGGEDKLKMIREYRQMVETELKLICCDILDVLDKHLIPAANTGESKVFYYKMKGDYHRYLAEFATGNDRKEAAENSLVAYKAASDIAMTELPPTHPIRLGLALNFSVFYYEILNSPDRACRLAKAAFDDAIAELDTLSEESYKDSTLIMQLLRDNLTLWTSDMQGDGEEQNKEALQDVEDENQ
T19 sequence (O60506 whole entry): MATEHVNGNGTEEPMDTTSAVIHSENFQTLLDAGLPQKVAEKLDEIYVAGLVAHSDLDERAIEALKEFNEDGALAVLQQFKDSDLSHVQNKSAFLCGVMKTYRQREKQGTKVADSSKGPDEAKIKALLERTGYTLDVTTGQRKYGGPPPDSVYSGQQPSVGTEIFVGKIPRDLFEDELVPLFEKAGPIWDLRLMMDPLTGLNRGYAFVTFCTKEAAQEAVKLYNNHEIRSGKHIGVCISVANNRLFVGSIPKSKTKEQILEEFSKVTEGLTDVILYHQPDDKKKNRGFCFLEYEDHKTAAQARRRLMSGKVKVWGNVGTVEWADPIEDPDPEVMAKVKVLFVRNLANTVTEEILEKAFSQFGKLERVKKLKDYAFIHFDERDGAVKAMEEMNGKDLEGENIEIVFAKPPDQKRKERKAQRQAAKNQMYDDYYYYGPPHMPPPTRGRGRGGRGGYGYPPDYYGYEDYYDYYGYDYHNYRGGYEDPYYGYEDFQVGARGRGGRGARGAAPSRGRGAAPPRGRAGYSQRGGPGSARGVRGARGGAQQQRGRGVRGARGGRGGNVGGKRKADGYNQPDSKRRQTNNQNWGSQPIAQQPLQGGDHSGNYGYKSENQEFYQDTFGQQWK
T9 sequence (P07195 whole entry): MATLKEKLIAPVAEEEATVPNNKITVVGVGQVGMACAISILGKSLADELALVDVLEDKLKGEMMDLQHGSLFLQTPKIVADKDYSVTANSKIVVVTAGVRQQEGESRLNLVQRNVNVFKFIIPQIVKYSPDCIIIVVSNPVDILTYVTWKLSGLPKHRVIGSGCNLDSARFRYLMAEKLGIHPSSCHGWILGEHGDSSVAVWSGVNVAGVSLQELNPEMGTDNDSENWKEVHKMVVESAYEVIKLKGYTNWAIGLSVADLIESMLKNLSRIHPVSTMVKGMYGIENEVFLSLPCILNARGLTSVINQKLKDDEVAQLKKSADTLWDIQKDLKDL
T10 sequence (P37837 whole entry): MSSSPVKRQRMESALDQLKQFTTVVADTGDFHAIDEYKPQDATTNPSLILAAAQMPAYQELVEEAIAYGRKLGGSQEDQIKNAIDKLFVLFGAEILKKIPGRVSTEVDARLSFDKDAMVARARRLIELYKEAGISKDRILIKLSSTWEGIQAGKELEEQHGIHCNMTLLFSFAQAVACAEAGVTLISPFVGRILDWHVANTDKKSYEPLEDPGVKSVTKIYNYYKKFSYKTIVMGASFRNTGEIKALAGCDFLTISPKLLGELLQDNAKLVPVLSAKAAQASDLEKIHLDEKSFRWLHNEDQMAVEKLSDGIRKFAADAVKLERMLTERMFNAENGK
T17 sequence (P10599 whole entry): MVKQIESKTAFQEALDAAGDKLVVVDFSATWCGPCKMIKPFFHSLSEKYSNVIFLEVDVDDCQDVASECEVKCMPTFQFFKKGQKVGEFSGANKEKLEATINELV
T8 sequence (Q14697 29-944): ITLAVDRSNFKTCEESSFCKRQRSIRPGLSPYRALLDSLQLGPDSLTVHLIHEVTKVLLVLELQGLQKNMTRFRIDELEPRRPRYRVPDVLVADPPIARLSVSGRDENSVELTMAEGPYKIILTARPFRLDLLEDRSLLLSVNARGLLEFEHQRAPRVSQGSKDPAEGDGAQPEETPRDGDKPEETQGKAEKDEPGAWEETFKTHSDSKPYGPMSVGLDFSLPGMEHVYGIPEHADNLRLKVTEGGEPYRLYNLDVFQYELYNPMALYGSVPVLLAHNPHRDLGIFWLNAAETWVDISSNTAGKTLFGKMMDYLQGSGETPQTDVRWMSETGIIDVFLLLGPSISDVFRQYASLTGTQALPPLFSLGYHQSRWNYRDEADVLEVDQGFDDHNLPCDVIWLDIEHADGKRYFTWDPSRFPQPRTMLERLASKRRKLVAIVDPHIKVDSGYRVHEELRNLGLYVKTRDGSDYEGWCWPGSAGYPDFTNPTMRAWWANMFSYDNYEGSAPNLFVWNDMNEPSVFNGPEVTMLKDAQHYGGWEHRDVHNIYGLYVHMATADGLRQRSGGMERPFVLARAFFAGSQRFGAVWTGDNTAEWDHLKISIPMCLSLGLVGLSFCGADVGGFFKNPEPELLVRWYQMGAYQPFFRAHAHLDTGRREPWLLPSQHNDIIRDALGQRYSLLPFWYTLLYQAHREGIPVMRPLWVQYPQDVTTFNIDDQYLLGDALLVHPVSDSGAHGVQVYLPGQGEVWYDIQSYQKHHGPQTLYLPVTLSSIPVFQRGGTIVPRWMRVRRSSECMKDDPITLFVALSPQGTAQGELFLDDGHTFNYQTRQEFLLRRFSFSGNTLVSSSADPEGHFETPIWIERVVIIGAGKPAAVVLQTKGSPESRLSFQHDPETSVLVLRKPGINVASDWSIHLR
T3 sequence (P37802 whole entry): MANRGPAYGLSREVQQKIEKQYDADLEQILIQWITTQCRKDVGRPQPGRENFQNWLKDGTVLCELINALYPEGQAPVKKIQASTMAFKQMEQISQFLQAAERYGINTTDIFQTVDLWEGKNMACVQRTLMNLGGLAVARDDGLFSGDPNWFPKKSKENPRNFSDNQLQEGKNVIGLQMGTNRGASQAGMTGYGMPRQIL
T6 sequence (P14923 whole entry): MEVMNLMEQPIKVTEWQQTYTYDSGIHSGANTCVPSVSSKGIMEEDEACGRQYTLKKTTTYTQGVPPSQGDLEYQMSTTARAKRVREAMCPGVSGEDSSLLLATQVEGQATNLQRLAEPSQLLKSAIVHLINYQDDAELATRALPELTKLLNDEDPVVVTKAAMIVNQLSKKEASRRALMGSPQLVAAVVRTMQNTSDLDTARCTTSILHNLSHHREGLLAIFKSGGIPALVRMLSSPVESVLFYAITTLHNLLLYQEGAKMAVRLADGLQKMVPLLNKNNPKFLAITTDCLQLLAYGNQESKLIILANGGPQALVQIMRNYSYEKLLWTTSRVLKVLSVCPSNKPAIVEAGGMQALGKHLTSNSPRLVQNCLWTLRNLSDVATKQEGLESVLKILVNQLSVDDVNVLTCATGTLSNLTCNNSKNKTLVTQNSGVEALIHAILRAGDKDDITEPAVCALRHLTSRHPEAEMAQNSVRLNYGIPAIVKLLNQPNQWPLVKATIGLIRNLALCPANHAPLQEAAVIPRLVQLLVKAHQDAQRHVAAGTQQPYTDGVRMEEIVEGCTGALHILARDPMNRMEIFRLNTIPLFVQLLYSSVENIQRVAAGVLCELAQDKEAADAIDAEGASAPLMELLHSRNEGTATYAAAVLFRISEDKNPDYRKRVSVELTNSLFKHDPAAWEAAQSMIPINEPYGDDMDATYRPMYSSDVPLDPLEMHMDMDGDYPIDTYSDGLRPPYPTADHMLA
T22 sequence (Q01469 whole entry): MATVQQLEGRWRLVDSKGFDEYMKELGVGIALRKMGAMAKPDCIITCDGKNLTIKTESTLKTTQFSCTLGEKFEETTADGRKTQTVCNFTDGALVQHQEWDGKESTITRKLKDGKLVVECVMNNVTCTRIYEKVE

SMILES: C#CCCCP(=O)(OCC)N1CCCC(N)C1=O.O=C(O)C(F)(F)F (mixture of isomers) [Compound 9]
- Log2-fold change (9/DMSO) [1]: 0.4032
- Log2-fold change (9/DMSO) [2]: -0.6769
- Log2-fold change (9/DMSO) [3]: 0.4985
- Initial LFQ intensity of DPP8 (log2-transformed) ([4]; labeled with 9, single replicates): 21.9345 and 21.2153 and 19.9933
- Log2-fold change (9/DMSO) [4, 32]: 1.124
- Log2-fold change (9/DMSO) [5]: 0.2377
- Log2-fold change (9/DMSO) [6]: 0.133
- Log2-fold change (9/DMSO) [7]: 0.5182
- Log2-fold change (9/DMSO) [8]: 0.2816
- Log2-fold change (9/DMSO) [9]: 0.03494
- Log2-fold change (9/DMSO) [10]: 0.3993
- Log2-fold change (9/DMSO) [11]: -0.5289
- Log2-fold change (9/DMSO) [12]: 0.03837
- Log2-fold change (9/DMSO) [13]: 0.4828
- Log2-fold change (9/DMSO) [14]: 1.065
- Log2-fold change (9/DMSO) [15]: -0.276
- Log2-fold change (9/DMSO) [16]: -0.08905
- Log2-fold change (9/DMSO) [17]: 1.146
- Log2-fold change (9/DMSO) [18]: -1.46
- Log2-fold change (9/DMSO) [19]: 0.3304
- Log2-fold change (9/DMSO) [20]: 0.1297
- Log2-fold change (9/DMSO) [21]: 1.662
- Log2-fold change (9/DMSO) [22]: -0.287
- Log2-fold change (9/DMSO) [23]: 0.9458
- Log2-fold change (9/DMSO) [24]: 1.1495
- Log2-fold change (9/DMSO) [25]: -0.9342
- Log2-fold change (9/DMSO) [26]: 0.5741
- Log2-fold change (9/DMSO) [27]: -0.0902
- Log2-fold change (9/DMSO) [28]: 0.5243
- Log2-fold change (9/DMSO) [29]: 0.2495
- Log2-fold change (9/DMSO) [30]: 0.889
- Log2-fold change (9/DMSO) [31]: 4.8

SMILES: CCCCCc1ccc(SCCP(=O)(OCC)N2CCC[C@H](N)C2=O)cc1.O=C(O)C(F)(F)F (stereo partly shown) [Compound 16]
- Log2-fold change (16/9) [1]: -0.4196
- Log2-fold change (16/9) [2]: 0.1121
- Log2-fold change (16/9) [3]: -0.3112
- DPP8 identification after pre-incubation with competitor ([4]; labeled with 9, pre-incubated with competitor): peptides of DPP8 were identified
- Log2-fold change (16/9) [4, 32]: -1.618
- Log2-fold change (16/9) [5]: 0.3661
- Log2-fold change (16/9) [6]: -0.03524
- Log2-fold change (16/9) [7]: -0.4211
- Log2-fold change (16/9) [8]: 0.1876
- Log2-fold change (16/9) [9]: 0.1493
- Log2-fold change (16/9) [10]: 0.1822
- Log2-fold change (16/9) [11]: -0.1373
- Log2-fold change (16/9) [12]: -1.788
- Log2-fold change (16/9) [13]: -0.5032
- Log2-fold change (16/9) [14]: -1.716
- Log2-fold change (16/9) [15]: 0.3401
- Log2-fold change (16/9) [16]: -1.548
- Log2-fold change (16/9) [17]: -0.6696
- Log2-fold change (16/9) [18]: 0.07588
- Log2-fold change (16/9) [19]: -1.04
- Log2-fold change (16/9) [20]: -0.758
- Log2-fold change (16/9) [21]: -0.4231
- Log2-fold change (16/9) [22]: 0.6319
- Log2-fold change (16/9) [23]: -0.8733
- Log2-fold change (16/9) [24]: -0.827
- Log2-fold change (16/9) [25]: 0.6936
- Log2-fold change (16/9) [26]: -1.553
- Log2-fold change (16/9) [27]: 0.05891
- Log2-fold change (16/9) [28]: -0.09939
- Log2-fold change (16/9) [29]: 0.301
- Log2-fold change (16/9) [30]: -2.217
- Log2-fold change (16/9) [31]: -0.8405

From article PMC11968843, “Sulphostin-inspired N-phosphonopiperidones as selective covalent DPP8 and DPP9 inhibitors” (Nature Communications, 2025)
